{
  "source": "patent US7943314B2",
  "about": "“Methods of detecting viability-associated molecules” (ISEAO Technologies Limited, priority 2005, dated 2011)",
  "key": {"[1]": {"system": "methicillin sensitive strain of Staphylococcus aureus (clinical isolate)", "experiment": "ATP assay (ligase/quantitative PCR) of Staphylococcus aureus susceptibility to antibiotic, sensitive strain", "format": "cell-based", "settings": "grown 3 hours at 37° C. with 60 μg/ml oxacillin; FIG. 7", "procedure": "(§1) • 1. A bacterial culture of a clinical isolate of a MRSA and antibiotic sensitive strain of Staphylococcus aureus strain were prepared in Nutrient media (Lab M, UK) and grown to stationary phase at 37° C. overnight. • 2. The following day, a hundred-fold dilution of the bacterial cultures were prepared in the same media with 1 μl alkaline phosphatase (10 units, New England Biolabs) with and without 60 μg/ml oxacillin and grown for 3 hours at 37° C. • 3. For the quantitation of ATP, 10 μl of each 0 (10 μl culture removed and treated at time 0 min) and 3 hour culture were added to 2.5 μl of 1M NaOH, 1% (v/v) Triton X-100 and incubated for 5 min before neutralisation with 25 μl of 0.1M HCL. 4. 100 μl of ligase buffer was then added followed by 5 μl ligase/DNA substrate paramagnetic beads (prepared as described in Example 2 above). • 5. After incubation at 8° C. for 60 min, the beads were collected using a magnet and resuspended in 20 μl ligase buffer. • 6. After heating at 95° C. for 5 min, 2 μl of the eluted ligated product was quantitated by PCR. • 7. The quantitative PCR was performed as described previously. Results\nThere is growth and an increase of ATP observed after 3 hr compared to the zero time point. This growth and increase in ATP is not observed when the organism is grown in the presence of oxacillin. […]"}, "[2]": {"system": "methicillin resistant strain of Staphylococcus aureus (MRSA clinical isolate)", "experiment": "ATP assay (ligase/quantitative PCR) of Staphylococcus aureus susceptibility to antibiotic, MRSA strain", "format": "cell-based", "settings": "grown 3 hours at 37° C. with 60 μg/ml oxacillin; FIG. 8", "procedure": "as §1\nThere is growth and an increase of ATP observed after 3 hr in the absence of antibiotic compared to the zero time point. […] The organism is not sensitive to this antibiotic and continues to grow and produce ATP in the presence of this antibiotic."}},
  "data": [
    {"smiles": "Cc1onc(-c2ccccc2)c1C(=O)N[C@@H]1C(=O)N2[C@@H]1SC(C)(C)[C@@H]2C(=O)O", "note": "[oxacillin]", "values": [
      {"measurement": "growth and increase in ATP after 3 hr compared to the zero time point", "setting": "[1]", "result": "not observed"},
      {"measurement": "growth and increase in ATP after 3 hr compared to the zero time point", "setting": "[2]", "result": "reduced but not abrogated"}
    ]}
  ]
}
